# According to patent US6362188B1, “Farnesyl protein transferase inhibitors” (Schering Corporation, priority 1998, dated 2002):
# Legend:
# Human tumor cells = assay: Soft Agar Assay (anchorage-independent growth); format: cell-based; conditions: colony outgrowth in soft agar, stated as a range for the group
# In short: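 Tumor cells suspended in 0.3% agarose over a 0.6% agarose base, both layers containing the same farnesyl transferase inhibitor concentration. Incubated 10-16 days at 37° C, 5% CO2; colonies stained with MTT (1 mg/mL in PBS) and counted, IC50 determined.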
SMILES,IC50 (Human tumor cells) [nM],melting point [°C]
CC(C)(C)NC(=O)N1CCN([C@@H]2c3ccc(Cl)cc3CCc3cc(Br)cnc32)C[C@@H]1C(=O)N1CCC[C@@H](Cn2ccnc2)C1 [Example 16],0.5 to 30,148 to 153
CC(C)(C)OC(=O)N1CCN(C2c3ccc(Cl)cc3CCc3cccnc32)CC1C(=O)N1CCCC(Cn2ccnc2)C1 (centres unmarked) [Example 24],0.5 to 30,115 to 126
Cc1nccn1CC1CCCN(C(=O)C2CN(C3c4ccc(Cl)cc4CCc4cccnc43)CCN2C(=O)OC(C)(C)C)C1 (centres unmarked) [Example 26],0.5 to 30,120 to 132
Cc1cn(CC2CCCN(C(=O)C3CN(C4c5ccc(Cl)cc5CCc5cccnc54)CCN3C(=O)OC(C)(C)C)C2)cn1 (centres unmarked) [Example 28],0.5 to 30,115 to 132
Cc1cn(CC2CCCCN(C(=O)C3CN(C4c5ccc(Cl)cc5CCc5cccnc54)CCN3C(=O)OC3CCCCC3)C2)cn1 (centres unmarked) [Example 47(CC)],0.05 to 30,108 to 113
Cc1nccn1C[C@H]1CCCN(C(=O)[C@H]2CN([C@H]3c4ccc(Cl)cc4CCc4cccnc43)CCN2C(=O)NC(C)(C)C)C1 [Example 48],0.5 to 30,111 to 140
Cc1cn(C[C@@H]2CCCN(C(=O)[C@H]3CN([C@H]4c5ccc(Cl)cc5CCc5cc(Br)cnc54)CCN3C(=O)Cc3ccc(F)cc3)C2)cn1 [Example 197],0.05 to 30,105 to 110
Cc1cn(C[C@@H]2CCCN(C(=O)[C@H]3CN([C@H]4c5ccc(Cl)cc5CCc5cc(Cl)cnc54)CCN3C(=O)OC(C)(C)C)C2)cn1 [Example 227],0.05 to 30,100 to 116
Cc1cn(C[C@@H]2CCCN(C(=O)[C@H]3CN([C@@H]4c5ccc(Cl)cc5CCc5cc(Cl)cnc54)CCN3C(=O)OC(C)(C)C)C2)cn1 [Example 228],0.05 to 30,115 to 128
Cc1cn(C[C@H]2CCCN(C(=O)[C@H]3CN([C@H]4c5ccc(Cl)cc5CCc5cc(Cl)cnc54)CCN3C(=O)OC(C)(C)C)C2)cn1 [Example 229],0.05 to 30,102 to 113
Cc1cn(CC2CCCN(C(=O)C3CN(C4c5ccc(Cl)cc5CCc5cc(Cl)cnc54)CCN3C(=O)OC(C)(C)C)C2)cn1 (centres unmarked) [Example 230],0.05 to 30,121 to 127
Cc1cn(C[C@@H]2CCCN(C(=O)[C@H]3CN([C@H]4c5ccc(Cl)cc5CCc5cc(Cl)cnc54)CCN3C(=O)OC3CCCCC3)C2)cn1 [Example 255],0.05 to 30,116 to 126
Cc1cn(C[C@@H]2CCCN(C(=O)[C@H]3CN([C@@H]4c5ccc(Cl)cc5CCc5cc(Cl)cnc54)CCN3C(=O)OC3CCCCC3)C2)cn1 [Example 256],0.05 to 30,122 to 128
Cc1cn(C[C@H]2CCCN(C(=O)[C@H]3CN([C@H]4c5ccc(Cl)cc5CCc5cc(Cl)cnc54)CCN3C(=O)OC3CCCCC3)C2)cn1 [Example 257],0.05 to 30,115 to 128
Cc1cn(C[C@H]2CCCN(C(=O)[C@H]3CN([C@@H]4c5ccc(Cl)cc5CCc5cc(Cl)cnc54)CCN3C(=O)OC3CCCCC3)C2)cn1 [Example 258],0.05 to 30,115 to 128
Cc1cn(C[C@@H]2CCCN(C(=O)[C@H]3CN([C@H]4c5ccc(Cl)cc5CCc5cc(F)cnc54)CCN3C(=O)OC(C)(C)C)C2)cn1 [Example 259],0.05 to 30,126 to 135
Cc1cn(C[C@@H]2CCCN(C(=O)[C@H]3CN([C@@H]4c5ccc(Cl)cc5CCc5cc(F)cnc54)CCN3C(=O)OC(C)(C)C)C2)cn1 [Example 260],0.05 to 30,110 to 116
Cc1cn(C[C@H]2CCCN(C(=O)[C@H]3CN([C@H]4c5ccc(Cl)cc5CCc5cc(F)cnc54)CCN3C(=O)OC(C)(C)C)C2)cn1 [Example 261],0.05 to 30,115 to 118
Cc1cn(C[C@H]2CCCN(C(=O)[C@H]3CN([C@@H]4c5ccc(Cl)cc5CCc5cc(F)cnc54)CCN3C(=O)OC(C)(C)C)C2)cn1 [Example 262],0.05 to 30,122 to 126
